Test system: T1, BoGal36A
T1 construct: gene Bacova_02091; predicted signal peptide removed, C-terminal His6 tag kept, pET28b+, E. coli BL21(DE3); tetramer (SEC 290 kDa)
Assay: continuous assay, p-nitrophenol release at […] nm, Michaelis-Menten fit
Assay type: biochemical, Bacteroides ovatus
Conditions: pH 6.0, 37 °C; 50 mM sodium citrate; 0.1-5 mM substrate

O=[N+]([O-])c1ccc(O[C@H]2O[C@H](CO)[C@H](O)[C@H](O)[C@H]2O)cc1 [pNP-α-gal]
Km: 132 ± 20 µM
